Results reported in patent US9545393B2, “Methods and compositions for treating pain” (The Board of Trustees of the Leland Stanford Junior …, priority 2012, dated 2017).
“Also recorded” adds a separate entry of the source.

What was measured:
mutant ALDH2*2 = target: T1, mutant ALDH2*2 (Homo sapiens, UniProt P05091, E504K); conditions: Perez-Miller et al, 2010; cited from earlier work
T1 sequence (P05091 18-517 E504K): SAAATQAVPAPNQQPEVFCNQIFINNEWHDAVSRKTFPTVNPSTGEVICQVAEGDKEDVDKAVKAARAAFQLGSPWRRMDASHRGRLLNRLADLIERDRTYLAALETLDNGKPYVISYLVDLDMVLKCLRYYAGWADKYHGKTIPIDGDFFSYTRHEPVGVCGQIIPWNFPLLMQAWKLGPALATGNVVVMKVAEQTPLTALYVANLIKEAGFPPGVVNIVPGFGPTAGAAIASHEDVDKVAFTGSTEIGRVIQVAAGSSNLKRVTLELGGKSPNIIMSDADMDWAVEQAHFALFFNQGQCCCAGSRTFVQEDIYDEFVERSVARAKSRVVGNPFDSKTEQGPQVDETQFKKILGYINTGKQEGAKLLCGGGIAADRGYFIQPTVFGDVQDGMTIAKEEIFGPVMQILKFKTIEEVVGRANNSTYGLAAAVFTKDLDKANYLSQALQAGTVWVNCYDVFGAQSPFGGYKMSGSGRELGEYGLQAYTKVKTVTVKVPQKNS

ALDH2 *1/*2 mice = experiment: Acetaldehyde vapor experiments with sub-threshold carrageenan, von Frey nociception; assay type: in vivo, mouse; conditions: ALDH2 *1/*2 mice exposed to acetaldehyde vapor, with Alda-1
Protocol: von Frey hair testing method: Hind paw nociception was assessed with six different von Frey hairs (0.03, 0.17, 0.41, 0.69, 1.20 and 1.48 g). Mice were placed individually in a plastic cage with a wire mesh bottom. After acclimation for at least 15 min, a von Frey hair was pressed perpendicularly against the plantar skin surface and held for approximately 5 seconds until hair slightly buckled. Using the same stimulation intensity […], each individual hair was applied six times to each hind paw at intervals of several seconds.
Since the response to each von Frey stimulus is fairly subjective, we used a method of objectifying these nociceptive responses by assigning a specific number to the response. Our scoring system consisted of: […], 1=withdraws paw from hair and 0=immediate flinching or hind paw licking. This method was previously shown by others to provide a reliable, objective assessment of pain response using von Frey hairs (Dale C S, et al., (2009) Analgesic properties of S100A9 C-terminal domain: a mechanism dependent on calcium channel inhibition. Fundamental & clinical pharmacology 23: 427-438; Takasaki I, et al., (2000) Allodynia and hyperalgesia induced by herpes simplex virus type-1 infection in mice. Pain 86: 95-101).
Acetaldehyde Experiments. […] A subset of these mice was exposed to acetaldehyde vapor with or without Alda-1. […]

O=C(NCc1ccc2c(c1)OCO2)c1c(Cl)cccc1Cl [Alda-1, N-(1,3-benzodioxol-5-ylmethyl)-2,6-dichlorobenzamide]
Effect on activity of mutant ALDH2*2 (mutant ALDH2*2): corrects ALDH2 inactivity
Acetaldehyde-exacerbated hyperalgesia after carrageenan (50 μg) (ALDH2 *1/*2 mice): rescued; also recorded: reversed
